From US12516058B2, “Small-molecule compounds for controlling endosomal toll-like receptors and therapeutic agent for autoimmune diseases using same” (priority 2020, dated 2026)
Entries after “also recorded” stand apart in the source; their conditions may differ.

Key:
TLR7 = biological target: T1, TLR7 (Mus musculus, UniProt P58681); test: TNF-α secretion ELISA after TLR7 agonist imiquimod (IMQ) in RAW 264.7 cells; assay type: cell-based; details: SK21 to SK82 at 0.5 μM or 2 μM, Imiquimod 1 μg/ml
T1 construct: endogenous in cells; host or cells: RAW 264.7
T1 sequence (P58681 27-1050): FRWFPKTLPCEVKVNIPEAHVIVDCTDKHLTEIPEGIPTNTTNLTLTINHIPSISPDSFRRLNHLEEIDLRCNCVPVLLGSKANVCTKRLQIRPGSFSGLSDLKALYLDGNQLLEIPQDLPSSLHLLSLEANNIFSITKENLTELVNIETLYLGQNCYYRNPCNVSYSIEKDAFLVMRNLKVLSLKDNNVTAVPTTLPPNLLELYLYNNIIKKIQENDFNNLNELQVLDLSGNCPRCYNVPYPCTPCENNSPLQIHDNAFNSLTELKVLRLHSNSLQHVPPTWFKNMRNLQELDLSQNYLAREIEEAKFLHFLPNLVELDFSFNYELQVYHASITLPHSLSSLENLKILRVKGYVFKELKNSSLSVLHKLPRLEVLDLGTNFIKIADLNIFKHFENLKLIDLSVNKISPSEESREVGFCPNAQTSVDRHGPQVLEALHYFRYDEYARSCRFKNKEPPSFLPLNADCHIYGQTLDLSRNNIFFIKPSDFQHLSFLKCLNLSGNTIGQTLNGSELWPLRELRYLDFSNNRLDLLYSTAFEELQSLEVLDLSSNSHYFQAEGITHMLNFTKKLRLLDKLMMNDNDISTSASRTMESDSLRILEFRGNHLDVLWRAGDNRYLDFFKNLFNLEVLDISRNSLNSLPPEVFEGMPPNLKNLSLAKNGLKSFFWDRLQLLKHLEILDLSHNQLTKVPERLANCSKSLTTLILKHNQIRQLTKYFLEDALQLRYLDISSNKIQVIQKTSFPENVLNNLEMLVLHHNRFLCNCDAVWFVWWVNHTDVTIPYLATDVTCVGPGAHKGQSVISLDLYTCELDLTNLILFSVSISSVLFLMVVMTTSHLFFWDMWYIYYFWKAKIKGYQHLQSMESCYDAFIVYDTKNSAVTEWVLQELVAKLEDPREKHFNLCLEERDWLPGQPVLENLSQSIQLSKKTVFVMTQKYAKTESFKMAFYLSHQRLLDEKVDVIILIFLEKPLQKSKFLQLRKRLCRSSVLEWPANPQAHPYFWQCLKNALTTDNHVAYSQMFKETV
Experimental: (§1) In order to determine the inhibitory activities of the test-ligand, RAW 264.7 cells were pretreated with each candidate compound for 1 hour, then treated with Pam3CSK4 (synthetic triacyl lipopeptide; TLR1/2, Invitrogen), FSL-1 (synthetic diacyl lipoprotein, TLR2/6, 100 ng/ml), lipopolysaccharide (LPS, TLR4, Sigma Aldrich), imiquimod (IMQ, TLR7, Invitrogen), and ODN2395 (type C CpG repeat motif DNA oligo(5′-[…]-3), TLR9, Bioneer) ligand for 4 hours, and treated with poly I:C (I:C repeat motif double-stranded RNA, TLR3, Invitrogen) and TL8-506 (TLR8, Invitrogen) showing delayed reactivity for 24 hours. After activation of TLR, the supernatant was diluted in an appropriate ratio so as to measure within the standard dose range, transferred to a pre-coated 96-well assay plate, and then treated with mouse TNF-alpha secretion level in accordance with the manufacturer's instructions using a mouse-TNF-alpha ELISA-kit (Invitrogen).
(§2) In order to plot the concentration-dependent LC50 curves, treatment with the SK series ligands at different concentrations up to 200 μM (the highest concentration that could be treated within the level of 0.5% DMSO) was performed. Then, cell viability and toxicity response upon treatment with ligands were analyzed by MTT as described in Examples 1-3. Cell viability in each plot was normalized from negative control (100%; no treatment) to positive control (highest concentration of test-ligand), and LC50 was determined by non-linear regression (Graph Pad Prism 7.0). In order to plot the concentration-dependent IC50 curves, pre-treatment with the SK series ligands was performed at different concentrations up to 50 μM (twice the initial concentration). Cell responses mediated by TLR7 and TLR9 (levels of TNF-α secretion) were analyzed by ELISA as described in Examples 1-4. The cytokine level in each plot was normalized from negative control (non-treated) to positive control (treatment with ligand), and IC50 was determined by non-linear regression (Graph Pad Prism 7.0).
(§3) In order to select potential inhibitory molecules against TLR3/TLR7/TLR8/TLR9 activation, first, MTT (3-(4,5-dimethylthiazol-2-yl)-2,5-diphenyltetrazolium bromide) cell viability assay (FIG. 7) was performed upon treatment with a set of ligands from SK21 to SK82 at a concentration of 20 μM and the inhibitory activity thereof was evaluated by an ELISA assay to monitor the level of TNF-α secretion in RAW 264.7 cells. The experimental ligands from SK21 to SK82 were administered at 0.5 μM or 2 μM to the RAW 264.7 cells and stimulated with Imiquimod (TLR7, 1 μg/ml) and OND2395 (TLR9, 0.5 μM).

TLR9 = biological target: T2, TLR9 (Mus musculus, UniProt Q9EQU3); test: TNF-α secretion ELISA after TLR9 agonist ODN2395 in RAW 264.7 cells; assay type: cell-based; details: SK21 to SK82 at 0.5 μM or 2 μM, ODN2395 0.5 μM
T2 construct: endogenous in cells; host or cells: RAW 264.7
T2 sequence (Q9EQU3 26-1032): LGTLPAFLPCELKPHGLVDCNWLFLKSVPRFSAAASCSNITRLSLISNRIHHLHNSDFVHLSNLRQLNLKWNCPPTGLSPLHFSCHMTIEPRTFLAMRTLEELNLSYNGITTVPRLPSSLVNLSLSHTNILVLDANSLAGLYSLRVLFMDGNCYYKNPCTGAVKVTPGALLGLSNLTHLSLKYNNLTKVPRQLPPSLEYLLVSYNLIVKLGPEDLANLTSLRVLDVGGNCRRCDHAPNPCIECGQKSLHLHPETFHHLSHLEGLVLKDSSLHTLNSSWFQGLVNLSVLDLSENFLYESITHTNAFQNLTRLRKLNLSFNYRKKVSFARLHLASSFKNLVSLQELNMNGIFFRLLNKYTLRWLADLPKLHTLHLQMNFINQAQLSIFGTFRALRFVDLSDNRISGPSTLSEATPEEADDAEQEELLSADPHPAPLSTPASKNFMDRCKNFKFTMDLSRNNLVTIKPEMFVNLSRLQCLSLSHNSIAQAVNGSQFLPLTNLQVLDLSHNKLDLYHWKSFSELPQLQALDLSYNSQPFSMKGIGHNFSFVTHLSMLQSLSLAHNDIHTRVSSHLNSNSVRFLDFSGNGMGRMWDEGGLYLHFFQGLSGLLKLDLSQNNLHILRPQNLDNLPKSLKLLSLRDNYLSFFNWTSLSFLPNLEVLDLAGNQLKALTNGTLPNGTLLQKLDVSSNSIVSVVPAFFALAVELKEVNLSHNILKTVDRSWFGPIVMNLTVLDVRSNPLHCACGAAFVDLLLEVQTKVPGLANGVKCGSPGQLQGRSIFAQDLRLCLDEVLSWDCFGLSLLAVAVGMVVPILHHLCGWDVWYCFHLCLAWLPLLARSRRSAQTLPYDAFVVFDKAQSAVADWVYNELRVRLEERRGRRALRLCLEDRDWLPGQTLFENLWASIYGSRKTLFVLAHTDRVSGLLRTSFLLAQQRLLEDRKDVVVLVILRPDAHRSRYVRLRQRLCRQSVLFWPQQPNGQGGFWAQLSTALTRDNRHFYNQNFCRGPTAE
Experimental: as §1, §2, §3

SMILES | inhibitory activity against TLR7 (level of TNF-α secretion) (TLR7) | inhibitory activity against TLR9 (level of TNF-α secretion) (TLR9)
Cc1c(C)n(CCCN(C)Cc2ccccc2)c2nc3c(c(N)c12)CCCCC3 [SK23, 1-(3-(benzyl(methyl)amino)propyl)-2,3-dimethyl-1,5,6,7,8,9-hexahydrocyclohepta[b]pyrrolo[3,2-e]pyridin-4-amine] | significant inhibitory activity; also recorded: significantly reduced | significant inhibitory activity; also recorded: significantly reduced
CNCCCn1c(C)c(C)c2c(N)c3c(nc21)CCCCC3 [SK24, 2,3-dimethyl-1-(3-(methylamino)propyl)-1,5,6,7,8,9-hexahydrocyclohepta[b]pyrrolo[3,2-e]pyridin-4-amine] | significant inhibitory activity; also recorded: significantly reduced | significant inhibitory activity; also recorded: significantly reduced
Cc1cc2c(N)c3c(nc2n1CCCN(C)C)CCCCC3 [SK29, 1-(3-(dimethylamino)propyl)-2-methyl-1,5,6,7,8,9-hexahydrocyclohepta[b]pyrrolo[3,2-e]pyridin-4-amine] | significant inhibitory activity; also recorded: significantly reduced | significant inhibitory activity; also recorded: significantly reduced
Cc1c(C)n(CCCN(C)C)c2nc3c(c(N)c12)CCCC3 [SK36, 1-(3-(dimethylamino)propyl)-2,3-dimethyl-5,6,7,8-tetrahydro-1H-pyrrolo[2,3-b]quinolin-4-amine] | significant inhibitory activity; also recorded: significantly reduced | significant inhibitory activity; also recorded: significantly reduced
Cc1cc2c(N)c3c(nc2n1CCCN(C)C)CCCC3 [SK39, 1-(3-(dimethylamino)propyl)-2-methyl-5,6,7,8-tetrahydro-1H-pyrrolo[2,3-b]quinolin-4-amine] | significant inhibitory activity; also recorded: significantly reduced | significant inhibitory activity; also recorded: significantly reduced
CCc1nc2c(cc(C)n2CCCN(C)C)c(N)c1C [SK40, 1-(3-(dimethylamino)propyl)-6-ethyl-2,5-dimethyl-1H-pyrrolo[2,3-b]pyridin-4-amine] | significant inhibitory activity; also recorded: significantly reduced | significant inhibitory activity; also recorded: significantly reduced
CN(C)CCCn1c2ccccc2c2c(N)c3c(nc21)CCCC3 [SK52, 6-(3-(dimethylamino)propyl)-2,3,4,6-tetrahydro-1H-indolo[2,3-b]quinolin-11-amine] | significant inhibitory activity; also recorded: significantly reduced | significant inhibitory activity; also recorded: significantly reduced
CNCCCn1c2ccc(OC)cc2c2c(N)c3c(nc21)CCCC3 [SK54, 9-methoxy-6-(3-(methylamino)propyl)-2,3,4,6-tetrahydro-1H-indolo[2,3-b]quinolin-11-amine] | significant inhibitory activity; also recorded: significantly reduced | significant inhibitory activity; also recorded: significantly reduced
CNCCCn1c2ccccc2c2c(N)c3c(nc21)CCCC3 [SK55, 6-(3-(methylamino)propyl)-2,3,4,6-tetrahydro-1H-indolo[2,3-b]quinolin-11-amine] | significant inhibitory activity; also recorded: significantly reduced | significant inhibitory activity; also recorded: significantly reduced
CN(C)CCCn1c2ccc(F)cc2c2c(N)c3c(nc21)CCCC3 [SK59, 6-(3-(dimethylamino)propyl)-9-fluoro-2,3,4,6-tetrahydro-1H-indolo[2,3-b]quinolin-11-amine] | significant inhibitory activity; also recorded: significantly reduced | significant inhibitory activity; also recorded: significantly reduced
CN(C)CCCn1c2ccc(Cl)cc2c2c(N)c3c(nc21)CCCC3 [SK60, 9-chloro-6-(3-(dimethylamino)propyl)-2,3,4,6-tetrahydro-1H-indolo[2,3-b]quinolin-11-amine] | significant inhibitory activity; also recorded: significantly reduced | significant inhibitory activity; also recorded: significantly reduced
CN(C)CCCn1c2ccc(OC(F)(F)F)cc2c2c(N)c3c(nc21)CCCC3 [SK61, 6-(3-(dimethylamino)propyl)-9-(trifluoromethoxy)-2,3,4,6-tetrahydro-1H-indolo[2,3-b]quinolin-11-amine] | significant inhibitory activity; also recorded: significantly reduced | significant inhibitory activity; also recorded: significantly reduced
